{"source": "patent US20080096861A1", "about": "“Chemical Compounds” (SMITHKLINE BEECHAM CORPORATION, priority 2004, published 2008)", "system": "HIV-1 IIIB", "test": "HOS HIV-1 infectivity assay", "type": "cell-based", "details": "Human immunodeficiency virus 1, IIIB; as determined by the infectivity assay; strain not stated in Table 2; read-out: Activity Level", "experimental": "Compounds were profiled against two HIV-1 viruses, the M-tropic (CCR5 utilizing) Ba-L strain and the T-tropic (CXCR4 utilizing) IIIB strain. Both viruses were propagated in human peripheral blood lymphocytes. Compounds were tested for there ability to block infection of the HOS cell line (expressing hCXCR4/hCCR5/hCD4/pHIV-LTR-luciferase) by either HIV-1 Ba-L or HIV-1 IIIB. Compound cytotoxicity was also examined in the absence of virus addition.\nHOS cells (expressing hCXCR4/hCCR5/hCD4/pHIV-LTR-luciferase) were harvested and diluted in Dulbeccos modified Eagles media supplemented with 2% FCS and non-essential amino acid to a concentration of 60,000 cells/ml. The cells were plated into 96-well plates (100 ul per well) and the plates were placed in a tissue culture incubator (37° C.; 5% CO2/95% air) for a period of 24 h.\nSubsequently, 50 ul of the desired drug solution (4 times the final concentration) was added to each well and the plates were returned to the tissue culture incubator (37° C.; 5% CO2/95% air) for 1 h. Following this incubation 50 ul of diluted virus was added to each well (approximately 2 million RLU per well of virus). The plates were returned to the tissue culture incubator (37° C.; 5% CO2/95% air) and were incubated for a further 96 h.\nFollowing this incubation the endpoint for the virally infected cultures was quantified following addition of Steady-Glo Luciferase assay system reagent (Promega, Madison, Wis.). Cell viability or non-infected cultures was measured using a CellTiter-Glo luminescent cell viability assay system (Promega, Madison, Wis.). All luminescent readouts are performed on a Topcount luminescence detector (Packard, Meridien, Conn.)."}
{"molecule": "CN1CCC[C@H]1CN1CCC[C@H](Cn2c(CN(C)[C@H]3CCCc4cccnc43)nc3ccccc32)C1", "note": "[Example 106, (8S)—N-Methyl-N-({1-[((3S)-1-{[(2S)-1-methyl-2-pyrrolidinyl]methyl}-3-Piperidinyl)methyl]-1H-benzimidazol-2-yl}methyl)-5,6,7,8-tetrahydro-8-quinolinamine]", "values": [{"measurement": "IC50", "value": "< 100", "unit": "nM"}]}
{"molecule": "CN1CCC[C@@H](Cn2c(CN(C)[C@@H]3CCCc4cccnc43)nc3ccccc32)C1", "note": "[Example 77, (8R)—N-Methyl-N-[(1-{[(3R)-1-methyl-3-piperidinyl]methyl}-1H-benzimidazol-2-yl)methyl]-5,6,7,8-tetrahydro-8-quinolinamine]", "values": [{"measurement": "IC50", "value": "100 to 500", "unit": "nM"}]}
{"molecule": "CN(Cc1nc2ccccc2n1Cc1ccncc1)C1CCCc2cccnc21", "note": "(centres unmarked) [Example 27, N-Methyl-N-{[1-(4-pyridinylmethyl)-1H-benzimidazol-2-yl]methyl}-5,6,7,8-tetrahydro-8-quinolinamine]", "values": [{"measurement": "IC50", "value": "100 to 500", "unit": "nM"}]}
{"molecule": "CN1CCC[C@H](Cn2c(CN(C)[C@@H]3CCCc4cccnc43)nc3ccccc32)C1", "note": "[Example 76, (8R)—N-Methyl-N-[(1-{[(3S)-1-methyl-3-piperidinyl]methyl}-1H-benzimidazol-2-yl)methyl]-5,6,7,8-tetrahydro-8-quinolinamine]", "values": [{"measurement": "IC50", "value": "100 to 500", "unit": "nM"}]}
{"molecule": "CCCN(Cc1nc2ccccc2n1C[C@H]1CCCN(C(C)C)C1)[C@H]1CCCc2cccnc21", "note": "[Example 97, (8S)—N-[(1-{[(3S)-1-(1-methylethyl)-3-piperidinyl]methyl}-1H-benzimidazol-2-yl)methyl]-N-propyl-5,6,7,8-tetrahydro-8-quinolinamine]", "values": [{"measurement": "IC50", "value": "< 100", "unit": "nM"}]}
{"molecule": "CN(Cc1nc2ccccc2n1C[C@H]1CCCN(/C(N)=N/C#N)C1)[C@H]1CCCc2cccnc21", "note": "[Example 91, (3R)—N-Cyano-3-{[2-({methyl[(8S)-5,6,7,8-tetrahydro-8-quinolinyl]amino}methyl)-1H-benzimidazol-1-yl]methyl}-1-piperidinecarboximidamide]", "values": [{"measurement": "IC50", "value": "< 100", "unit": "nM"}]}
{"molecule": "CC(C)CCN1CCC[C@H](Cn2c(CN(C)[C@@H]3CCCc4cccnc43)nc3ccccc32)C1", "note": "[Example 82, (8R)—N-Methyl-N-[(1-{[(3S)-1-(3-methylbutyl)-3-piperidinyl]methyl}-1H-benzimidazol-2-yl)methyl]-5,6,7,8-tetrahydro-8-quinolinamine]", "values": [{"measurement": "IC50", "value": "< 100", "unit": "nM"}]}
{"molecule": "CN1CCC[C@H](Cn2c(CN(C)[C@H]3CCCc4cccnc43)nc3ccccc32)C1", "note": "[Example 39i, (8S)—N-Methyl-N-[(1-{[(3S)-1-methyl-3-piperidinyl]methyl}-1H-benzimidazol-2-yl)methyl]-5,6,7,8-tetrahydro-8-quinolinamine]", "values": [{"measurement": "IC50", "value": "< 100", "unit": "nM"}]}
{"molecule": "CC(C)CCN(Cc1nc2ccccc2n1CCCCN)C1CCCc2cccnc21", "note": "(centres unmarked) [Example 54, N-{[1-(4-Aminobutyl)-1H-benzimidazol-2-yl]methyl}-N-(3-methylbutyl)-5,6,7,8-tetrahydro-8-quinolinamine]", "values": [{"measurement": "IC50", "value": "100 to 500", "unit": "nM"}]}
{"molecule": "CC(C)N1CCC[C@H]1CN1CCC[C@H](Cn2c(CN(C)[C@H]3CCCc4cccnc43)nc3ccccc32)C1", "note": "[Example 107, (8S)—N-Methyl-N-({1-[((3S)-1-{[(2S)-1-(1-methylethyl)-2-Pyrrolidinyl]methyl}-3-piperidinyl)methyl]-1H-benzimidazol-2-yl}methyl)-5,6,7,8-tetrahydro-8-quinolinamine]", "values": [{"measurement": "IC50", "value": "< 100", "unit": "nM"}]}
{"molecule": "CN(Cc1nc2ccccc2n1CCc1cncn1C)C1CCCc2cccnc21", "note": "(centres unmarked) [Example 71, N-Methyl-N-({1-[2-(1-methyl-1H-imidazol-5-yl)ethyl]-1H-benzimidazol-2-yl}methyl)-5,6,7,8-tetrahydro-8-quinolinamine]", "values": [{"measurement": "IC50", "value": "100 to 500", "unit": "nM"}]}
{"molecule": "CN(Cc1nc2ccccc2n1C/C=C/CN)C1CCCc2cccnc21", "note": "(centres unmarked) [Example 58, N-({1-[(2E)-4-Amino-2-buten-1-yl]-1H-benzimidazol-2-yl}methyl)-N-methyl-5,6,7,8-tetrahydro-8-quinolinamine]", "values": [{"measurement": "IC50", "value": "100 to 500", "unit": "nM"}]}
{"molecule": "CC(C)CCN(Cc1nc2ccccc2n1CC(C)(C)CN(C)C)C1CCCc2cccnc21", "note": "(centres unmarked) [Example 66, N-({1-[3-(Dimethylamino)-2,2-dimethylpropyl]-1H-benzimidazol-2-yl}methyl)-N-(3-methylbutyl)-5,6,7,8-tetrahydro-8-quinolinamine]", "values": [{"measurement": "IC50", "value": "500 to 10000", "unit": "nM"}]}
{"molecule": "CN(Cc1nc2ccccc2n1CCCN)[C@H]1CCCc2cccnc21", "note": "[Example 110, (8S)—N-{[1-(3-Aminopropyl)-1H-benzimidazol-2-yl]methyl}-N-methyl-5,6,7,8-tetrahydro-8-quinolinamine]", "values": [{"measurement": "IC50", "value": "< 100", "unit": "nM"}]}
{"molecule": "CC(C)N1CCC[C@H](Cn2c(CN(CCO)[C@H]3CCCc4cccnc43)nc3ccccc32)C1", "note": "[Example 99, 2-{[(1-{[(3S)-1-(1-Methylethyl)-3-piperidinyl]methyl}-1H-benzimidazol-2-yl)methyl][(8S)-5,6,7,8-tetrahydro-8-quinolinyl]amino}ethanol]", "values": [{"measurement": "IC50", "value": "< 100", "unit": "nM"}]}
{"molecule": "CN(Cc1nc2ccccc2n1CCc1ccccn1)C1CCCc2cccnc21", "note": "(centres unmarked) [Example 37, N-methyl-N-([1-[2-(2-pyridinyl)ethyl]-1H-benzimidazol-2-yl]methyl)-5,6,7,8-tetrahydro-8-quinolinamine]", "values": [{"measurement": "IC50", "value": "100 to 500", "unit": "nM"}]}
{"molecule": "CC(C)N(Cc1nc2ccccc2n1CCCN(C)C)C1CCCc2cccnc21", "note": "(centres unmarked) [Example 60, N-({1-[3-(Dimethylamino)propyl]-1H-benzimidazol-2-yl}methyl)-N-(1-methylethyl)-5,6,7,8-tetrahydro-8-quinolinamine]", "values": [{"measurement": "IC50", "value": "< 100", "unit": "nM"}]}
{"molecule": "CN(Cc1nc2ccccc2n1C[C@H]1CCCN(Cc2nccs2)C1)[C@H]1CCCc2cccnc21", "note": "[Example 103, (8S)—N-Methyl-N-[(1-{[(3S)-1-(1,3-thiazol-2-ylmethyl)-3-piperidinyl]methyl}-1H-benzimidazol-2-yl)methyl]-5,6,7,8-tetrahydro-8-quinolinamine]", "values": [{"measurement": "IC50", "value": "100 to 500", "unit": "nM"}]}
{"molecule": "CC(C)CCN(CCCn1c(CN(C)C2CCCc3cccnc32)nc2ccccc21)CCC(C)C", "note": "(centres unmarked) [Example 65, N-[(1-[3-[Bis(3-methylbutyl)amino]propyl]-1H-benzimidazol-2-yl)methyl]-N-methyl-5,6,7,8-tetrahydro-8-quinolinamine]", "values": [{"measurement": "IC50", "value": "500 to 10000", "unit": "nM"}]}
{"molecule": "CC(C)CCNCC(C)(C)Cn1c(CN(C)C2CCCc3cccnc32)nc2ccccc21", "note": "(centres unmarked) [Example 69, N-[(1-{2,2-Dimethyl-3-[(3-methylbutyl)amino]propyl}-1H-benzimidazol-2-yl)methyl]-N-methyl-5,6,7,8-tetrahydro-8-quinolinamine]", "values": [{"measurement": "IC50", "value": "100 to 500", "unit": "nM"}]}
{"molecule": "CN(Cc1nc2ccccc2n1C[C@H]1CCCN(Cc2cccn2C)C1)[C@H]1CCCc2cccnc21", "note": "[Example 104, (8S)—N-Methyl-N-{[1-({(3S)-1-[(1-methyl-1H-pyrrol-2-yl)methyl]-3-piperidinyl}methyl)-1H-benzimidazol-2-yl]methyl}-5,6,7,8-tetrahydro-8-quinolinamine]", "values": [{"measurement": "IC50", "value": "< 100", "unit": "nM"}]}
{"molecule": "CN(C)Cc1cccc(Cn2c(CN(C)C3CCCc4cccnc43)nc3ccccc32)c1", "note": "(centres unmarked) [Example 48, N-{[1-({3-[(Dimethylamino)methyl]phenyl}methyl)-1H-benzimidazol-2-yl]methyl}-N-methyl-5,6,7,8-tetrahydro-8-quinolinamine]", "values": [{"measurement": "IC50", "value": "100 to 500", "unit": "nM"}]}
{"molecule": "CN(Cc1nc2ccccc2n1C[C@@H]1CCCN(C(=N)N)C1)[C@@H]1CCCc2cccnc21", "note": "[Example 86, (3S)-3-{[2-({Methyl[(8R)-5,6,7,8-tetrahydro-8-quinolinyl]amino}methyl)-1H-benzimidazol-1-yl]methyl}-1-piperidinecarboximidamide]", "values": [{"measurement": "IC50", "value": "100 to 500", "unit": "nM"}]}
{"molecule": "CN(Cc1nc2ccccc2n1[C@H]1CC[C@H](N(C)C)CC1)C1CCCc2cccnc21", "note": "(stereo partly drawn) [Example 35, N-({1-[trans-4-(Dimethylamino)cyclohexyl]-1H-benzimidazol-2-yl}methyl)-N-methyl-5,6,7,8-tetrahydro-8-quinolinamine]", "values": [{"measurement": "IC50", "value": "100 to 500", "unit": "nM"}]}
{"molecule": "CN(C)/C(=N\\C#N)N1CCC[C@H](Cn2c(CN(C)[C@H]3CCCc4cccnc43)nc3ccccc32)C1", "note": "[Example 92, (3R)—N′-Cyano-N,N-dimethyl-3-{[2-({methyl[(8S)-5,6,7,8-tetrahydro-8-quinolinyl]amino}methyl)-1H-benzimidazol-1-yl]methyl}-1-piperidinecarboximidamide]", "values": [{"measurement": "IC50", "value": "100 to 500", "unit": "nM"}]}
{"molecule": "CN(Cc1nc2ccccc2n1Cc1ccccn1)C1CCCc2cccnc21", "note": "(centres unmarked) [Example 26, N-Methyl-N-{[1-(2-pyridinylmethyl)-1H-benzimidazol-2-yl]methyl}-5,6,7,8-tetrahydro-8-quinolinamine]", "values": [{"measurement": "IC50", "value": "500 to 10000", "unit": "nM"}]}
{"molecule": "CN1CCCCC1CCCn1c(CN(C)C2CCCc3cccnc32)nc2ccccc21", "note": "(centres unmarked) [Example 59, N-Methyl-N-({1-[3-(1-methyl-2-piperidinyl)propyl]-1H-benzimidazol-2-yl}methyl)-5,6,7,8-tetrahydro-8-quinolinamine]", "values": [{"measurement": "IC50", "value": "100 to 500", "unit": "nM"}]}
{"molecule": "CN(Cc1nc2ccccc2n1C[C@H]1CCCN(Cc2ncc[nH]2)C1)[C@H]1CCCc2cccnc21", "note": "[Example 45, (8S)—N-[(1-{[(3S)-1-(1H-Imidazol-2-ylmethyl)-3-piperidinyl]methyl}-1H-benzimidazol-2-yl)methyl]-N-methyl-5,6,7,8-tetrahydro-8-quinolinamine]", "values": [{"measurement": "IC50", "value": "< 100", "unit": "nM"}]}
{"molecule": "CN(C)CC(C)(C)Cn1c(CN(C)C2CCCc3cccnc32)nc2ccccc21", "note": "(centres unmarked) [Example 67, N-({1-[3-(Dimethylamino)-2,2-dimethylpropyl]-1H-benzimidazol-2-yl}methyl)-N-methyl-5,6,7,8-tetrahydro-8-quinolinamine]", "values": [{"measurement": "IC50", "value": "< 100", "unit": "nM"}]}
